In ChEMBL document CHEMBL3864157, “The synthesis and antistaphylococcal activity of dehydroabietic acid derivatives: Modifications at C-12” (2016) one finds MIC data, which are given here for 41 molecules.

What all share (assay type): functional
Assay [1] relates to Staphylococcus aureus. Nature of the assay: Antibacterial activity against Staphylococcus aureus Newman.
Assay [2] relates to Staphylococcus aureus. Kind of assay: Antibacterial activity against erythromycin-resistant Staphylococcus aureus NRS-70.
For assay [3], the system named is Staphylococcus aureus. Kind of assay: Antibacterial activity against oxacillin/tetracycline-resistant Staphylococcus aureus NRS-100.
Assay [4] deals with Staphylococcus aureus. Kind of assay: Antibacterial activity against linezolid-resistant Staphylococcus aureus NRS-271.
Assay [5] concerns Staphylococcus aureus. Kind of assay: Antibacterial activity against aminoglycosides/tetracycline-resistant Staphylococcus aureus NRS-1.
Assay [6] concerns Staphylococcus aureus. Kind of assay: Antibacterial activity against gentamicin-resistant Staphylococcus aureus NRS-108.

SMILES strings stand for the structures. Converted amounts (≈) assume the structure as drawn.

Take `CCC(=NOC)c1cc2c(cc1C(C)C)CC[C@H]1[C@](C)(C(=O)O)CCC[C@]21C`: in the assay on Staphylococcus aureus [1], the MIC was greater than 50 µg/mL.
Consider `CC(C)c1cc2c(cc1C(=NO)c1cccc(C(F)(F)F)c1)[C@@]1(C)CCC[C@@](C)(C(=O)O)[C@@H]1CC2`, for which the minimum inhibitory concentration (MIC) against Staphylococcus aureus [2] is 1.56 to 3.13 µg/mL (≈ 3.2 to 6.42 µM); in the assay on Staphylococcus aureus [3], 3.13 to 6.25 µg/mL (≈ 6.42 to 12.8 µM); against Staphylococcus aureus [4], 3.13 to 6.25 µg/mL (≈ 6.42 to 12.8 µM); against Staphylococcus aureus [1], 1.56 to 3.13 µg/mL (≈ 3.2 to 6.42 µM); in the assay on Staphylococcus aureus [5] it was 3.13 to 6.25 µg/mL (≈ 6.42 to 12.8 µM); in the assay with Staphylococcus aureus [6] it was 3.13 to 6.25 µg/mL (≈ 6.42 to 12.8 µM).
For the molecule `C#CCON=C(c1cc2c(cc1C(C)C)CC[C@H]1[C@](C)(C(=O)O)CCC[C@]21C)C(C)C`, the minimum inhibitory concentration (MIC) in the assay on Staphylococcus aureus [1] is 10 to 12.5 µg/mL (≈ 23.6 to 29.5 µM).
For `CCCC(=NO)c1cc2c(cc1C(C)C)CC[C@H]1[C@](C)(C(=O)O)CCC[C@]21C`, in the assay with Staphylococcus aureus [1], the minimal inhibitory concentration (MIC) was in the range of 40 to 50 µg/mL (≈ 104 to 130 µM).
With `CN(C)[C@@H]1C(O)=C(C(N)=O)C(=O)[C@@]2(O)C(O)=C3C(=O)c4c(O)cccc4[C@@](C)(O)[C@H]3C[C@@H]12` [TETRACYCLINE], the MIC is less than 0.2 µg/mL with Staphylococcus aureus [2]; less than 0.2 µg/mL in the assay with Staphylococcus aureus [3]; less than 0.2 µg/mL in the assay with Staphylococcus aureus [4]; less than 0.2 µg/mL against Staphylococcus aureus [1]; greater than 25 µg/mL with Staphylococcus aureus [5]; less than 0.2 µg/mL in the assay on Staphylococcus aureus [6].
In the assay on Staphylococcus aureus [1], `CO/N=C(/c1cc2c(cc1C(C)C)CC[C@H]1[C@](C)(C(=O)O)CCC[C@]21C)C(C)C` had an MIC of 30 to 40 µg/mL (≈ 75.1 to 100 µM).
Same read-out and setting: with `CC(C)c1cc2c(cc1C(=NO)c1ccccc1)[C@@]1(C)CCC[C@@](C)(C(=O)O)[C@@H]1CC2` the figure was 10 to 12.5 µg/mL (≈ 23.8 to 29.8 µM); with `CCC(=NOCc1ccccc1)c1cc2c(cc1C(C)C)CC[C@H]1[C@](C)(C(=O)O)CCC[C@]21C`, greater than 50 µg/mL.
Take `C=CCON=C(c1ccccc1)c1cc2c(cc1C(C)C)CC[C@H]1[C@](C)(C(=O)O)CCC[C@]21C`: the MIC is 1.25 to 1.56 µg/mL (≈ 2.72 to 3.39 µM) against Staphylococcus aureus [2]; 1.56 to 2.5 µg/mL (≈ 3.39 to 5.44 µM) in the assay with Staphylococcus aureus [3]; 1.56 to 2.5 µg/mL (≈ 3.39 to 5.44 µM) against Staphylococcus aureus [4]; 1.25 to 2.5 µg/mL (≈ 2.72 to 5.44 µM) against Staphylococcus aureus [1]; 2.5 to 3.13 µg/mL (≈ 5.44 to 6.81 µM) with Staphylococcus aureus [5]; 1.56 to 2.5 µg/mL (≈ 3.39 to 5.44 µM) against Staphylococcus aureus [6].
In the assay on Staphylococcus aureus [1], `CC(C)C(=NO)c1cc2c(cc1C(C)C)CC[C@H]1[C@](C)(C(=O)O)CCC[C@]21C` gave an MIC greater than 50 µg/mL.
As to `CON=C(c1cc2c(cc1C(C)C)CC[C@H]1[C@](C)(C(=O)O)CCC[C@]21C)c1ccccc1C(F)(F)F`, the minimum inhibitory concentration (MIC) lay in the range of 1.56 to 3.13 µg/mL (≈ 3.11 to 6.24 µM) against Staphylococcus aureus [2]; 3.13 to 6.25 µg/mL (≈ 6.24 to 12.5 µM) against Staphylococcus aureus [3]; 1.56 to 3.13 µg/mL (≈ 3.11 to 6.24 µM) in the assay with Staphylococcus aureus [4]; 0.39 to 0.78 µg/mL (≈ 0.778 to 1.56 µM) in the assay on Staphylococcus aureus [1]; 3.13 to 6.25 µg/mL (≈ 6.24 to 12.5 µM) against Staphylococcus aureus [5]; 6.25 to 12.5 µg/mL (≈ 12.5 to 24.9 µM) in the assay with Staphylococcus aureus [6].
`CON=C(c1cccc(C(F)(F)F)c1)c1cc2c(cc1C(C)C)CC[C@H]1[C@](C)(C(=O)O)CCC[C@]21C`: the MIC in the assay with Staphylococcus aureus [2] was greater than 25 µg/mL; in the assay with Staphylococcus aureus [3], greater than 25 µg/mL; against Staphylococcus aureus [4] it was greater than 25 µg/mL; in the assay with Staphylococcus aureus [1] it was 1.56 to 3.13 µg/mL (≈ 3.11 to 6.24 µM); against Staphylococcus aureus [5], greater than 25 µg/mL; against Staphylococcus aureus [6], greater than 25 µg/mL.
`CON=C(c1ccccc1)c1cc2c(cc1C(C)C)CC[C@H]1[C@](C)(C(=O)O)CCC[C@]21C` registered a minimum inhibitory concentration (MIC) in the assay with Staphylococcus aureus [1] of 5 µg/mL (≈ 11.5 µM).
For `C=CCON=C(c1cc2c(cc1C(C)C)CC[C@H]1[C@](C)(C(=O)O)CCC[C@]21C)C(C)C`, the minimum inhibitory concentration (MIC) against Staphylococcus aureus [1] was 10 to 12.5 µg/mL (≈ 23.5 to 29.4 µM).
On the same count and under the same terms, the same measure for `C#CCON=C(c1ccc(C(F)(F)F)cc1)c1cc2c(cc1C(C)C)CC[C@H]1[C@](C)(C(=O)O)CCC[C@]21C`: greater than 50 µg/mL.
As to `C=CCON=C(c1ccc(Cl)cc1Cl)c1cc2c(cc1C(C)C)CC[C@H]1[C@](C)(C(=O)O)CCC[C@]21C`, the MIC against Staphylococcus aureus [2] is 1.56 to 3.13 µg/mL (≈ 2.95 to 5.92 µM); against Staphylococcus aureus [3], 12.5 to 25 µg/mL (≈ 23.7 to 47.3 µM); against Staphylococcus aureus [4] it was greater than 25 µg/mL; against Staphylococcus aureus [1], 1.56 to 3.13 µg/mL (≈ 2.95 to 5.92 µM); with Staphylococcus aureus [5], greater than 25 µg/mL; against Staphylococcus aureus [6], 12.5 µg/mL (≈ 23.7 µM).
In the assay with Staphylococcus aureus [1], `C/C(=N\O)c1cc2c(cc1C(C)C)CC[C@H]1[C@](C)(C(=O)O)CCC[C@]21C` came in with a minimal inhibitory concentration (MIC) greater than 50 µg/mL.
Same read-out and setting: the same measure for `CON=C(c1cc2c(cc1C(C)C)CC[C@H]1[C@](C)(C(=O)O)CCC[C@]21C)C1CCCCC1`: greater than 50 µg/mL; for `CC(C)c1cc2c(cc1C(=NO)c1cccs1)[C@@]1(C)CCC[C@@](C)(C(=O)O)[C@@H]1CC2`: 6.25 to 12.5 µg/mL (≈ 14.7 to 29.4 µM); for `CC(C)c1cc2c(cc1C(=NOCc1ccccc1)c1ccccc1)[C@@]1(C)CCC[C@@](C)(C(=O)O)[C@@H]1CC2`: greater than 50 µg/mL.
In the assay with Staphylococcus aureus [1], `C/C(=N\OCc1ccccc1)c1cc2c(cc1C(C)C)CC[C@H]1[C@](C)(C(=O)O)CCC[C@]21C` showed a minimum inhibitory concentration (MIC) greater than 50 µg/mL.
`C#CCON=C(c1cc2c(cc1C(C)C)CC[C@H]1[C@](C)(C(=O)O)CCC[C@]21C)C1CCCCC1`: the MIC in the assay with Staphylococcus aureus [1] is greater than 50 µg/mL.
As for `C=CCO/N=C(\C)c1cc2c(cc1C(C)C)CC[C@H]1[C@](C)(C(=O)O)CCC[C@]21C`, the minimum inhibitory concentration (MIC) with Staphylococcus aureus [1] was 30 to 40 µg/mL (≈ 75.5 to 101 µM).
As for `C=CCON=C(CC)c1cc2c(cc1C(C)C)CC[C@H]1[C@](C)(C(=O)O)CCC[C@]21C`, the minimal inhibitory concentration (MIC) with Staphylococcus aureus [1] was greater than 50 µg/mL.
Same read-out and setting: with `CCCC(=NOCc1ccccc1)c1cc2c(cc1C(C)C)CC[C@H]1[C@](C)(C(=O)O)CCC[C@]21C` the figure was greater than 50 µg/mL.
Same read-out and setting: with `C#CCON=C(CC)c1cc2c(cc1C(C)C)CC[C@H]1[C@](C)(C(=O)O)CCC[C@]21C` the figure was 20 to 25 µg/mL (≈ 48.8 to 61 µM); with `C#CCON=C(c1cccs1)c1cc2c(cc1C(C)C)CC[C@H]1[C@](C)(C(=O)O)CCC[C@]21C`, 1.56 to 3.13 µg/mL (≈ 3.36 to 6.75 µM); with `C=CCON=C(c1ccc(C(F)(F)F)cc1)c1cc2c(cc1C(C)C)CC[C@H]1[C@](C)(C(=O)O)CCC[C@]21C`, greater than 50 µg/mL.
The same measure, in the same setting: with `C=CCON=C(CCC)c1cc2c(cc1C(C)C)CC[C@H]1[C@](C)(C(=O)O)CCC[C@]21C` the figure was 10 to 12.5 µg/mL (≈ 23.5 to 29.4 µM); with `CC(C)c1cc2c(cc1C(=NO)C1CCCCC1)[C@@]1(C)CCC[C@@](C)(C(=O)O)[C@@H]1CC2`, 12.5 to 25 µg/mL (≈ 29.4 to 58.7 µM); with `C#CCON=C(CCC)c1cc2c(cc1C(C)C)CC[C@H]1[C@](C)(C(=O)O)CCC[C@]21C`, 15 to 20 µg/mL (≈ 35.4 to 47.2 µM).
For the molecule `CON=C(c1ccc(C(F)(F)F)cc1)c1cc2c(cc1C(C)C)CC[C@H]1[C@](C)(C(=O)O)CCC[C@]21C`, the minimal inhibitory concentration (MIC) in the assay with Staphylococcus aureus [1] is greater than 50 µg/mL.
Same read-out and setting: with `CC(C)c1cc2c(cc1C(=NO)c1ccc(C(F)(F)F)cc1)[C@@]1(C)CCC[C@@](C)(C(=O)O)[C@@H]1CC2` the figure was greater than 50 µg/mL; with `CON=C(c1cccs1)c1cc2c(cc1C(C)C)CC[C@H]1[C@](C)(C(=O)O)CCC[C@]21C`, 6.25 to 12.5 µg/mL (≈ 14.2 to 28.4 µM); with `C#CCO/N=C(\C)c1cc2c(cc1C(C)C)CC[C@H]1[C@](C)(C(=O)O)CCC[C@]21C`, greater than 50 µg/mL.
The same measure, in the same setting: with `CCCC(=NOC)c1cc2c(cc1C(C)C)CC[C@H]1[C@](C)(C(=O)O)CCC[C@]21C` the figure was 40 to 50 µg/mL (≈ 100 to 125 µM); with `C=CCON=C(c1cc2c(cc1C(C)C)CC[C@H]1[C@](C)(C(=O)O)CCC[C@]21C)C1CCCCC1`, 12.5 to 25 µg/mL (≈ 26.8 to 53.7 µM).
The same measure, in the same setting: the same measure for `C=CCON=C(c1cccc(C(F)(F)F)c1)c1cc2c(cc1C(C)C)CC[C@H]1[C@](C)(C(=O)O)CCC[C@]21C`: greater than 50 µg/mL.
On to `C=CCON=C(c1cccs1)c1cc2c(cc1C(C)C)CC[C@H]1[C@](C)(C(=O)O)CCC[C@]21C`, for which the MIC against Staphylococcus aureus [1] fell in the range of 25 to 50 µg/mL (≈ 53.7 to 107 µM).
In the assay with Staphylococcus aureus [1], `CCC(=NO)c1cc2c(cc1C(C)C)CC[C@H]1[C@](C)(C(=O)O)CCC[C@]21C` showed a minimum inhibitory concentration (MIC) greater than 50 µg/mL.
Still for that read-out and setting: with `CC(C)C(=NOCc1ccccc1)c1cc2c(cc1C(C)C)CC[C@H]1[C@](C)(C(=O)O)CCC[C@]21C` the figure was greater than 50 µg/mL.
